Source: US20220370395A1, “ENHANCER OF PHOTODYNAMIC EFFECT IN ALA-PDT OR ALA-PDD” (SBI PHARMACEUTICALS CO., LTD., priority 2017, published 2022)

What was measured:
[1] = test system: cancer cell strains DU145, HT29, HCC2998, MKN7, MDA-MB-231, MCF-7; experiment: Intracellular and extracellular PpIX amount in cancer cell strains, ALA plus serial dilutions of inhibitor (Examples 1, 3, 4, 5); assay type: cell-based; conditions: in combination with 1 mM ALA; for extracellular PpIX amount (corrected with amount of protein) / intracellular PpIX amount (corrected with amount of protein): cultured 4 hours, compared to ALA alone, six cancer cell strains
Excerpt: Six types of cells strains were employed as cancer cell strains: […], large intestine cancer cell strains (HT29, HCC2998), stomach cancer cell strain (MKN7), and mammary gland cancer cell strains (MDA-MB-231, MCF-7). For the medium, RPMI 1640 (from Wako) supplemented with 5% inactivated fetal bovine serum (FBS, from Biowest) was employed (hereinafter referred to as RPMI medium). Two types of inhibitors are known to exist for dynamin: one is an inhibitor that targets the GAS domain, whereas the other is an inhibitor that targets the PH domain. Iminodyn22 (from abcam) was used as the inhibitor that targets the GAS domain. Further, OcTMAB (from abcam) was used as the inhibitor that targets the PH domain.
To 1 mg of OcTMAB was added 255 μL of dimethyl sulfoxide (DMSO, from Wako), and this was mixed to make an OcTMAB 10 mM stock solution. Further, to 1 mg of Iminodyn22 was added 208 μL of DMSO, and this was mixed to make an Iminodyn22 10 mM stock solution. The OcTMAB 10 mM stock solution was diluted with the RPMI medium to adjust to 16 μM. The Iminodyn22 10 mM stock solution was diluted with the RPMI medium to adjust to 40 μM. The OcTMAB and Iminodyn22 prepared were each serially diluted with the RPMI medium to create six serial dilutions. Each of these dynamin inhibitor-containing medium was mixed with an equal amount of the RPMI medium comprising 2 mM aminolevulinic acid hydrochloride salt (ALA) to prepare ALA/OcTMAB and ALA/Iminodyn22-containing mediums.
Each cancer cell strain was seeded in a 96-well plate (black with transparent bottom; from Corning) at a density of 1.25×10^4 cells/well (only MDA-MB-231 was seeded at 2.0×10^4 cells/well), and this was cultured overnight at 37° C. After the overnight culture, the culture supernatant was removed, 200 μL each of ALA/OcTMAB-containing medium or ALA/Iminodyn22-containing medium described above were added to each well, and this was cultured for 4 hours under a 37° C. condition. After 4 hours, 100 μL of each culture supernatant were transferred to another 96-well plate, and this was set as the extracellular PpIX measuring plate. The remaining culture supernatant was removed, each cell strain was washed once with phosphate buffered saline (PBS, from Wako), and then 100 μL per well of 1% dodecyl sodium sulfate (SDS, from Wako) aqueous solution was added to dissolve the cells, and this was set as the intracellular PpIX measuring plate. Protoporphyrin IX standard sample (PpIX, from Funakoshi Co., Ltd.) was dissolved in DMSO solution to create 1 mM PpIX stock solution. The 1 mM PpIX stock solution was diluted with each of 1% SDS solution and RPMI medium, and PpIX standard solutions with final concentrations of 0-1000 nM were prepared. The PpIX standard solutions prepared with 1% SDS were added to unused wells in the intracellular accumulation PpIX measuring plate, and the standard solutions prepared with the RPMI medium were added to unused portions of the extracellular export PpIX measuring plate at 100 μL each. The fluorescence intensity of the intracellular PpIX measuring plate and the extracellular PpIX measuring plate was measured with a microplate reader (infinite M200PRO; from TECAN) under the condition of excitation light at 405 nm and measurement wavelength at 635 nm. After measurement, a standard curve was created from the fluorescence intensity of the PpIX standard solutions, and the amount of PpIX in each well was calculated from the standard curve.
In order to correct the amount of PpIX measured by the above method with the amount of protein, the amount of protein contained in each sample of the intracellular PpIX measuring plate was measured. Pierce™ BCA Protein Assay Kit (from Thermo Fisher) was used for measuring the amount of protein. BCA reagent A and BCA reagent B were mixed at a proportion of 50:1 to prepare the BCA reaction solution. […]

[2] = cited from earlier work
[3] = test system: cancer cell strains DU145, HT29, HCC2998, MKN7, MDA-MB-231, MCF-7; experiment: Intracellular and extracellular PpIX amount, combination use of OcTMAB and FTC with ALA (Example 2); assay type: cell-based; conditions: final concentration ALA 1 mM, OcTMAB 8 μM, FTC 10 μM, 4 hours; compared between combination use groups
Description: Six types of cells strains were employed as cancer cell strains: […], large intestine cancer cell strains (HT29, HCC2998), stomach cancer cell strain (MKN7), and mammary gland cancer cell strains (MDA-MB-231, MCF-7). Fumitremorgin C (FTC, from sigma) was dissolved in DMSO to create a 2 mM stock solution, and then adjusted to 40 μM with the RPMI medium. For OcTMAB, the 10 mM stock solution was adjusted with the RPMI medium to 32 μM. The 40 μM FTC-containing RPMI medium was added to an equal amount of 32 μM OcTMAB-containing medium to prepare a 16 μM OcTMAB/20 μM FTC-containing medium. Note that FTC is an inhibitor of ABCG2 (a transporter that extracellularly exports PpIX), and is known as a compound that has the effect of inhibiting extracellular export of PpIX.
Each cancer cell strain was seeded in a 96-well plate (black with transparent bottom) at a density of 1.25×10^4 cells/well (only MDA-MB-231 was seeded at 2.0×10^4 cells/well), and this was cultured overnight at 37/C. After the overnight culture, the culture supernatant was removed, 100 μL each of 2 mM ALA-containing RPMI medium was added to each well. […]
In order to correct the above PpIX amount measurement result with the amount of protein, the amount of protein in each sample for measuring the intracellular PpIX amount was measured. […]

SMILES | extracellular PpIX amount (corrected with amount of protein) [1] | intracellular PpIX amount (corrected with amount of protein) [1] | inhibitor concentration at which the increase in the amount of PpIX accumulated peaks ([1]; 4 hours) | inhibitor concentration at which the decrease of extracellular PpIX amount peaks ([1]; 4 hours) | time until metabolized in vivo and excreted [2] | extracellular PpIX amount (PpIX extracellular export) [3] | intracellular PpIX amount [3]
N=c1oc2c(O)c(O)ccc2cc1C(=O)NCCCNC(=O)c1cc2ccc(O)c(O)c2oc1=N [iminodyn22] | no change in the intracellular and extracellular PpIX amounts | no change in the intracellular and extracellular PpIX amounts |  |  |  |  | 
CCCCCCCCCCCCCCCCCC[N+](C)(C)CCN1C(=O)[C@@H]2[C@H](C1=O)[C@H]1CC[C@@H]2O1.[Br-] [RTIL13] | decrease of extracellular PpIX amount dependent on the concentration of RTIL13 | increase in the amount of PpIX accumulated | ~10 µM |  |  |  | 
CCCCCCCCCCCCCC[N+](C)(C)C.[Br-] [MiTMAB] | decrease of extracellular PpIX amount dependent on the concentration of MiTMAB | increase of intracellular PpIX amount dependent on the concentration of MiTMAB |  |  |  |  | 
O=c1[nH]c2ccccc2n1C1CCN(Cc2ccc(-c3nc4cc5nc[nH]c5cc4nc3-c3ccccc3)cc2)CC1 [Akt inhibitor VIII] | decrease of extracellular PpIX amount | increase in the amount of PpIX accumulated | ~5 µM | ~5 µM |  |  | 
NCC(=O)CCC(=O)O [ALA, 5-aminolevulinic acid] |  |  |  |  | ≤ 48 h |  | 
CCCCCCCCCCCCCCCCCC[N+](C)(C)C.[Br-] [OcTMAB] | decrease of extracellular PpIX amount dependent on the concentration of OcTMAB | increase of intracellular PpIX amount dependent on the concentration of OcTMAB |  |  |  | effect similar to ETC for suppressing PpIX extracellular export | increased intracellular PpIX similar to or more than the ALA and ETC combination use group
